{"source": "paper PMC4977052", "about": "“On the Utility of ToxCast™ and ToxPi as Methods for Identifying New Obesogens” (Environmental Health Perspectives, 2016)", "key": {"3T3-L1 preadipocytes": {"tested_on": "3T3-L1 preadipocytes", "assay": "3T3-L1 adipogenesis assay (lipid accumulation, adipogenic gene expression)", "format": "cell-based", "conditions": "0.02-20 μM, 5 days after MDI induction", "description": "3T3-L1 cells (ATCC) were maintained in high-glucose DMEM supplemented with 10% fetal bovine serum, 2 mM L-glutamine, 50 IU/mL penicillin, and 50 μg/mL streptomycin. A total of 2 × 10^4 cells per well were seeded in 12-well plates. After 48 hr, cells were exposed to the adipogenic cocktail MDI (500 μM isobutylmethylxanthine, 0.25 nM dexamethasone and 5 μg/mL insulin), 8 μg/mL biotin and 8 μg/mL pantothenate for 2 days. Induction media was removed and cells were exposed to test chemicals during 5 days, replacing the media every 2 days. Rosiglitazone (ROSI) and tributyltin (TBT) were used as positive controls at 100 nM and 50 nM final concentrations, respectively. All ToxCast™ chemicals were tested at 0.02, 0.2, 2, and 20 μM, and DMSO concentration was maintained at 0.1% across all treatments. If the chemical was toxic at 20 μM, we repeated the experiment at 10 μM.\nCells were either fixed in 3.7% formaldehyde in phosphate-buffered saline (PBS) for 30 min at room temperature (RT) for lipid quantitation, or homogenized in TriPure (Roche, Mannheim, Germany) for gene expression analysis. For lipid quantitation, fixed cells were washed twice with PBS and maintained in PBS overnight at 4°C to release residual phenol red. Background of cells were measured prior to staining. Cells were stained with 1 μg/mL Nile red (CAS No. 7385-67-3) (to detect lipid accumulation) and 1 μg/mL Hoechst 33342 (ThermoFisher Scientific) (to detect nuclei as a surrogate for cell number) in PBS for 15 min in the dark at RT and washed twice with PBS. […] Background values of Hoechst and Nile red were subtracted from the RFUs after staining and the ratio RFUNile Red:RFUHoechst was calculated. Data are represented as mean ± SEM. Total RNA was isolated using TriPure (Roche) as recommended by the manufacturer. Reverse transcription and quantitative real-time RT-PCR (QPCR) were performed using Transcriptor RT and SYBR® Green Master Mix (Roche). cDNA was quantitated in a LightCycler® 480 System (Roche Diagnostics, Basel, Switzerland) using primer sets listed in Table S4. Each primer set amplified a single band as determined by gel electrophoresis and melting curve analysis. QPCR data were analyzed using the 2^ΔΔCt method ([Livak and Schmittgen 2001]) relative to ribosomal protein 36b4, normalizing to 0.1% DMSO vehicle. Error bars represent the SEM from four to six biological replicates calculated using standard propagation of error ([Bevington and Robinson 2003])."}, "GAL4-mPPARγ": {"target": "T1, GAL4-mPPARγ (Mus musculus, UniProt P37238)", "T1 construct": "expressed in transfected cells; host or cells: COS7", "T1 sequence (P37238 with tags, fused parts or gaps limits assumed)": "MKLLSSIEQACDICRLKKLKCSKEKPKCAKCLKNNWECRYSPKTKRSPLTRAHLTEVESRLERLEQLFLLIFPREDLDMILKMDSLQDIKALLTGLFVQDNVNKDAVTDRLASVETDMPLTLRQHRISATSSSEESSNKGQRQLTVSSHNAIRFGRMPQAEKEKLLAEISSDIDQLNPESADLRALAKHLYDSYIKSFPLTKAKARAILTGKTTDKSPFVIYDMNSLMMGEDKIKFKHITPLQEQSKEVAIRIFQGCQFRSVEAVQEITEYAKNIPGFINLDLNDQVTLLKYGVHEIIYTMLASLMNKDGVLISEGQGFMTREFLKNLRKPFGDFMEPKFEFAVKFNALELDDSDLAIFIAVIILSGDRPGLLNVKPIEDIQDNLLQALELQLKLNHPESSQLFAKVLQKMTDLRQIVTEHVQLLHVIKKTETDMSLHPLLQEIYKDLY", "assay": "GAL4-mPPARγ activation, transient transfection luciferase reporter in COS7 cells", "format": "cell-based", "conditions": "for Activation of GAL4-PPARγ (text): COS7, 100 μM through 0.137 μM; for Activation COS7 (result in words), ToxPi chemicals: PPARγ or RXRα activation assays (Table 2)", "description": "(§1) pCMX-Gal4, pCMX-Gal4-mPPARγ, and pCMX-Gal4-hRXRα were previously described ([Grün et al. 2006]). Transient transfections were performed in COS7 cells as described ([Chamorro-García et al. 2012]). Briefly, COS7 cells were seeded at 15,000 cells per well in 96-well tissue culture plates in 10% calf bovine serum. The following day, cells were transfected in Opti-MEM at ~ 90% confluency. One microgram of CMX-GAL4 effector plasmid was co-transfected with 5 μg tk-(MH100)4-luciferase reporter and 5 μg of CMX-β-galactosidase transfection control plasmids in Opti-MEM® using Lipofectamine® 2000 reagent (Invitrogen™ Life Technologies, Carlsbad, CA, USA), following the manufacturer’s recommended protocol. All chemicals were solvated in dimethyl sulfoxide (DMSO). After overnight incubation, the medium was replaced with Dulbecco’s Modified Eagle Medium (DMEM; HyClone, Logan, UT, USA), 10% resin charcoal stripped fetal bovine serum (FBS) plus ligands at concentrations indicated in the figure legends for an additional 24 hr. DMSO concentration was maintained at 0.05% across all chemical treatments. Cells were lysed and assayed for luciferase and β-galactosidase activity as previously described ([Forman et al. 1995]). All transfections were performed in triplicate and reproduced in multiple experiments. Data are reported as fold induction or reduction over vehicle ([…]) controls ± SEM (standard error of the mean) using standard propagation of error ([Bevington and Robinson 2003]). […] The EC50, EC10, IC50, and IC10 values from NCGC and ToxCast™ are reported from gain AC50 and AC10 values in the ToxCast™ 2014 release ([Filer et al. 2014]).\nFigure 1 ToxCast™ Chemical Activity on PPARγ. The ability of a graded dose series of ToxCast™ chemicals to (A) activate or (B) antagonize GAL4-mPPARγ was tested in transiently transfected COS7 cells. (A, B) Data points are averages of triplicate transfections (three biological replicates). […] Data are depicted as (A) fold induction or (B) reduction over vehicle (0.05% DMSO) controls ± SEM. (A) ToxCast™ chemicals were tested in 3-fold serial dilutions from 100 μM through 0.137 μM, with the final data point being 0.05% DMSO. Rosiglitazone serves as a positive control activator. (B) ToxCast™ chemicals were tested in 3-fold serial dilutions from 100 μM, in competition with 50 nM rosiglitazone (Rosi). […] (C) EC50, EC10, IC50, and IC10 values calculated from A and B are reported and compared to commercial assays (see Figure S1). Note: ATG, Attagene GAL-PPARγ activation assay; NCGC, GeneBLAzer® agonist (EC values) or antagonist (IC values) assays. Triphenyltin was previously published ([Kanayama et al. 2005]).\n(§2) Figure 4 ToxPi Chemical Activity on PPARγ and RXRα. The ability of a graded dose series of ToxPi chemicals to activate (A) GAL4-mPPARγ or (B) GAL4-hRXRα was tested in transiently transfected COS7 cells. (A, B) Data points are averages of triplicate transfections (three biological replicates). […] ToxPi chemicals were tested in 3-fold serial dilutions from 100 μM through 0.137 μM, with the final data point being 0.05% DMSO. Data are depicted as fold induction over vehicle (0.05% DMSO) controls ± SEM. (A) Rosiglitazone serves as a positive control activator for GAL4-mPPARγ. (B) LG100268 (2-[1-(3,5,5,8,8-Pentamethyl-5,6,7,8-tetrahydro-2-naphthyl)cyclopropyl]pyridine-5-carboxylic acid) serves as a positive control activator for GAL4-hRXRα. (C) EC50 and EC10 values calculated from A and B are reported and compared to other assays (see Figure S1). ATG, Attagene GAL-PPARγ or GAL-RXRα activation assay; NCGC, GeneBLAzer® GAL-PPARγ or GAL-RXRα activation assays. Triphenyltin was previously published ([Kanayama et al. 2005])."}, "PPARγ [1]": {"tested_on": "PPARγ", "conditions": "cited from earlier work"}, "PPRE": {"tested_on": "PPRE", "set-up": "method as in Knudsen et al. 2011", "conditions": "ToxCast Phase I 2011 release; NA = not active; ref Knudsen et al. 2011; read-out: ATGC PPRE AC50; cited from earlier work"}, "LXRβ": {"tested_on": "LXRβ", "set-up": "method as in Knudsen et al. 2011", "conditions": "ToxCast Phase I 2011 release; NA = not active; ref Knudsen et al. 2011; read-out: ATGT LXRβ AC50; cited from earlier work"}, "C/EBP": {"tested_on": "C/EBP", "set-up": "method as in Knudsen et al. 2011", "conditions": "ToxCast Phase I 2011 release; NA = not active; ref Knudsen et al. 2011; read-out: ATGC CEBP AC50; cited from earlier work"}, "PPARγ [2]": {"tested_on": "PPARγ", "set-up": "method as in Filer et al. 2014", "conditions": "PPARγ; NA = not active; ref Filer et al. 2014; read-out: NCGC Antag. AC50, 2014 Release; cited from earlier work"}, "LXRα": {"tested_on": "LXRα", "set-up": "method as in Knudsen et al. 2011", "conditions": "ToxCast Phase I 2011 release; NA = not active; ref Knudsen et al. 2011; read-out: ATGT LXRα AC50; cited from earlier work"}, "PPARγ [3]": {"tested_on": "PPARγ", "conditions": "ToxCast 2014 release, ref Filer et al. 2014, cited from earlier work"}, "GAL4-hRXRα": {"target": "T2, GAL4-hRXRα (Homo sapiens, UniProt P19793)", "T2 construct": "expressed in transfected cells; host or cells: COS7", "T2 sequence (P19793 with tags, fused parts or gaps limits assumed)": "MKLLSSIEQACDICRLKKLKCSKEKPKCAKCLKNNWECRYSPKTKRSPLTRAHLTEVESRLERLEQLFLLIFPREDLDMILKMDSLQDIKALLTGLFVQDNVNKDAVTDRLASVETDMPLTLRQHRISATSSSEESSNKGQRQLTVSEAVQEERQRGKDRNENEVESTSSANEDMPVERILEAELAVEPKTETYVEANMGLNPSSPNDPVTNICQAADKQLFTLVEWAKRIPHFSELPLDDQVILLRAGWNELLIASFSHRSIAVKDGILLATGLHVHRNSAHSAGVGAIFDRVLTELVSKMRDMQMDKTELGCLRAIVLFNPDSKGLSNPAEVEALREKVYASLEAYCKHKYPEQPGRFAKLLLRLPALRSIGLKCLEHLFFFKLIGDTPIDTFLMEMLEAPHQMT", "assay": "GAL4-hRXRα activation, transient transfection luciferase reporter in COS7 cells", "format": "cell-based", "conditions": "COS7, 100 μM through 0.137 μM", "description": "as §1, §2"}, "Human PPARγ": {"tested_on": "Human PPARγ", "conditions": "direct binding, ToxCast 2014 release, ref Filer et al. 2014, cited from earlier work"}, "[4]": {"conditions": "ToxCast Phase I 2011 release, NA = not active, ref Knudsen et al. 2011, read-out: ATGT PPARγ AC50"}}, "note": "“Also recorded” adds a separate entry of the source. Read-outs that look alike come from different tables or passages of the source.", "data": [{"molecule": "CC(C)(C)c1ccc(CSc2cnn(C(C)(C)C)c(=O)c2Cl)cc1", "note": "[Pyridaben]", "values": [{"measurement": "Adipogenesis 3T3-L1 (result in words)", "setting": "3T3-L1 preadipocytes", "result": "strongly inhibited adipogenesis; also recorded: Inhibitor"}, {"measurement": "AC50", "setting": "GAL4-mPPARγ", "result": 3000, "unit": "nM"}, {"measurement": "EC50", "setting": "GAL4-mPPARγ", "result": 2980, "unit": "nM"}, {"measurement": "Activation of GAL4-PPARγ (text)", "setting": "GAL4-mPPARγ", "result": "activated PPARγ"}, {"measurement": "PPARγ agonists: EC10, Fig 1A / Fig 4A", "setting": "GAL4-mPPARγ; COS7, computed from EC50 in GraphPad Quick Calc", "result": 530, "unit": "nM"}, {"measurement": "Activation COS7 (result in words), ToxPi chemicals", "setting": "GAL4-mPPARγ; Cos-7 transient transfection", "result": "PPARγ activator"}, {"measurement": "PPARγ agonists: EC10, ATG", "setting": "PPARγ [1]; AC10, ToxCast 2014 release, ref Filer et al. 2014", "result": 2570, "unit": "nM"}, {"measurement": "AC50", "setting": "PPARγ [1]; [4]", "result": 14000, "unit": "nM"}, {"measurement": "EC50", "setting": "PPARγ [1]; gain AC50, ToxCast 2014 release, ref Filer et al. 2014, read-out: PPARγ agonists: EC50, ATG", "result": 10100, "unit": "nM"}, {"measurement": "AC50", "setting": "PPRE", "result": 1600, "unit": "nM"}]}, {"molecule": "O=C(Nc1ccccc1)Nc1ccnc(Cl)c1", "note": "[Forchlorfenuron]", "values": [{"measurement": "Adipogenesis 3T3-L1 (result in words)", "setting": "3T3-L1 preadipocytes", "result": "Positive"}, {"measurement": "Activation COS7 (result in words), ToxPi chemicals", "setting": "GAL4-mPPARγ; Cos-7 transient transfection", "result": "Inactive"}, {"measurement": "AC50", "setting": "LXRβ", "result": 37000, "unit": "nM"}, {"measurement": "AC50", "setting": "PPARγ [1]; [4]", "result": 46000, "unit": "nM"}, {"measurement": "AC50", "setting": "C/EBP", "result": 40000, "unit": "nM"}, {"measurement": "AC50", "setting": "PPRE", "result": 26000, "unit": "nM"}]}, {"molecule": "CCc1nn(C)c(C(=O)NCc2ccc(C(C)(C)C)cc2)c1Cl", "note": "[Tebufenpyrad]", "values": [{"measurement": "AC50", "setting": "PPARγ [2]", "result": 23100, "unit": "nM"}, {"measurement": "Adipogenesis 3T3-L1 (result in words)", "setting": "3T3-L1 preadipocytes", "result": "Negative"}, {"measurement": "Activation COS7 (result in words), ToxCast PPARγ list", "setting": "GAL4-mPPARγ; Cos-7 transient transfection, PPARγ activation or antagonism assays (Table 1, Table S6)", "result": "Inactive"}, {"measurement": "Activation COS7 (result in words), ToxPi chemicals", "setting": "GAL4-mPPARγ; Cos-7 transient transfection", "result": "Inactive"}, {"measurement": "AC50", "setting": "LXRβ", "result": 460, "unit": "nM"}, {"measurement": "AC50", "setting": "PPARγ [1]; PPARγ, NA = not active, ref Filer et al. 2014, read-out: ATG Agonist AC50, 2014 Release", "result": 2600, "unit": "nM"}, {"measurement": "AC50", "setting": "PPARγ [1]; PPARγ, NA = not active, ref Knudsen et al. 2011, read-out: ATG Agonist AC50, 2011 Release", "result": 4900, "unit": "nM"}, {"measurement": "AC50", "setting": "LXRα", "result": 360, "unit": "nM"}, {"measurement": "AC50", "setting": "PPRE", "result": 830, "unit": "nM"}]}, {"molecule": "CCNc1nc(Cl)nc(NC(C)C)n1", "note": "[Atrazine]", "values": [{"measurement": "Activation of GAL4-PPARγ (text)", "setting": "GAL4-mPPARγ", "result": "inactive"}, {"measurement": "AC50", "setting": "PPARγ [1]; ToxCast 2014 release, ref Filer et al. 2014, read-out: Attagene AC50 (panel A, w/o Z-Score Correction ranking)", "result": 15200, "unit": "nM"}, {"measurement": "AC50", "setting": "PPARγ [1]; ToxCast 2014 release, ref Filer et al. 2014, read-out: Attagene AC50 (panel B, with Z-Score Correction ranking)", "result": 15200, "unit": "nM"}, {"measurement": "AC50", "setting": "PPARγ [3]; read-out: Tox21/NCGC AC50 (panel A)", "result": 200, "unit": "nM"}, {"measurement": "AC50", "setting": "PPARγ [3]; read-out: Tox21/NCGC AC50 (panel B)", "result": 200, "unit": "nM"}, {"measurement": "Activation of RXRα", "setting": "GAL4-hRXRα", "result": "inactive"}, {"measurement": "AC50", "setting": "Human PPARγ; read-out: NovaScreen AC50 (panel A)", "result": 300, "unit": "nM"}, {"measurement": "AC50", "setting": "Human PPARγ; read-out: NovaScreen AC50 (panel B)", "result": 300, "unit": "nM"}]}]}
